According to ChEMBL document CHEMBL3044672, “N9- and N7-(Chloromethyl Phenymethyl)Chloropurine Derivatives from , '-Dichloroxylenes: Synthesis and Anticancer Activity” (2005):

Key:
Format in all cases: functional
SK-MEL-2 = test: Cytotoxicity against Homo sapiens (human) SK-MEL-2 cells after 48 hr by sulforhodamine B assay; details: SK-MEL-2, 48 h
MDA-MB-231 = test: Cytotoxicity against Homo sapiens (human) MDA-MB-231 cells after 48 hr by sulforhodamine B assay; details: MDA-MB-231, 48 h
HOP-62 = test: Cytotoxicity against Homo sapiens (human) HOP62 cells after 48 hr by sulforhodamine B assay; details: HOP-62, 48 h
SF-539 = test: Cytotoxicity against Homo sapiens (human) SF539 cells after 48 hr by sulforhodamine B assay; details: SF-539, 48 h
MOLT-4 = test: Cytotoxicity against Homo sapiens (human) MOLT4 cells after 48 hr by sulforhodamine B assay; details: MOLT-4, 48 h
HCT-15 = test: Cytotoxicity against Homo sapiens (human) HCT15 cells after 48 hr by sulforhodamine B assay; details: HCT-15, 48 h
A498 = test: Cytotoxicity against Homo sapiens (human) A498 cells after 48 hr by sulforhodamine B assay; details: A498, 48 h
SF-295 = test: Cytotoxicity against Homo sapiens (human) SF295 cells after 48 hr by sulforhodamine B assay; details: SF-295, 48 h
EKVX = test: Cytotoxicity against Homo sapiens (human) EKVX cells after 48 hr by sulforhodamine B assay
ACHN = test: Cytotoxicity against Homo sapiens (human) ACHN cells after 48 hr by sulforhodamine B assay
IGROV-1 = test: Cytotoxicity against Homo sapiens (human) IGROV1 cells after 48 hr by sulforhodamine B assay; details: IGROV-1, 48 h
UACC-62 = test: Cytotoxicity against Homo sapiens (human) UACC62 cells after 48 hr by sulforhodamine B assay; details: UACC-62, 48 h
PC-3 = test: Cytotoxicity against Homo sapiens (human) PC3 cells after 48 hr by sulforhodamine B assay; details: PC-3, 48 h
786-0 = test: Cytotoxicity against Homo sapiens (human) 786-0 cells after 48 hr by sulforhodamine B assay; details: 786-0, 48 h
CCRF-CEM = test: Cytotoxicity against Homo sapiens (human) CCRF-CEM cells after 48 hr by sulforhodamine B assay
SK-MEL-5 = test: Cytotoxicity against Homo sapiens (human) SK-MEL-5 cells after 48 hr by sulforhodamine B assay; details: SK-MEL-5, 48 h
SW-620 = test: Cytotoxicity against Homo sapiens (human) SW620 cells after 48 hr by sulforhodamine B assay; details: SW-620, 48 h
HCT-116 = test: Cytotoxicity against Homo sapiens (human) HCT116 cells after 48 hr by sulforhodamine B assay; details: HCT-116, 48 h
RPMI-8226 = test: Cytotoxicity against Homo sapiens (human) RPMI8226 cells after 48 hr by sulforhodamine B assay; details: RPMI-8226, 48 h
OVCAR-3 = test: Cytotoxicity against Homo sapiens (human) OVCAR3 cells after 48 hr by sulforhodamine B assay; details: OVCAR-3, 48 h
UO-31 = test: Cytotoxicity against Homo sapiens (human) UO31 cells after 48 hr by sulforhodamine B assay; details: UO-31, 48 h
A549 = test: Cytotoxicity against Homo sapiens (human) A549 cells after 48 hr by sulforhodamine B assay; details: A549, 48 h
SF-268 = test: Cytotoxicity against Homo sapiens (human) SF268 cells assessed as cell growth at 10^-4 M after 48 hr by […] assay; details: SF-268, 48 h, read-out: Activity
DU-145 = test: Cytotoxicity against Homo sapiens (human) DU145 cells after 48 hr by sulforhodamine B assay; details: DU-145, 48 h
LOX IMVI = test: Cytotoxicity against Homo sapiens (human) LOXIMVI cells after 48 hr by sulforhodamine B assay
HCC 2998 = test: Cytotoxicity against Homo sapiens (human) HCC2998 cells after 48 hr by sulforhodamine B assay; details: HCC 2998, 48 h
OVCAR-4 = test: Cytotoxicity against Homo sapiens (human) OVCAR4 cells after 48 hr by sulforhodamine B assay; details: OVCAR-4, 48 h
KM12 = test: Cytotoxicity against Homo sapiens (human) KM12 cells after 48 hr by sulforhodamine B assay; details: KM12, 48 h
NCI-H322M = test: Cytotoxicity against Homo sapiens (human) NCI-H322M cells after 48 hr by sulforhodamine B assay
T47D = test: Cytotoxicity against Homo sapiens (human) T47D cells after 48 hr by sulforhodamine B assay
SK-OV-3 = test: Cytotoxicity against Homo sapiens (human) SKOV3 cells after 48 hr by sulforhodamine B assay; details: SK-OV-3, 48 h
[1] = read-out: LC50 (the source's name)

Nc1nc(Cl)c2ncn(Cc3ccccc3CCl)c2n1
LC50 (concentration killing 50% of cells) (SK-MEL-2): > 100 µM
TGI (SK-MEL-2): 81.3 µM
LC50 (MDA-MB-231): 63.1 µM
TGI (MDA-MB-231): 9.55 µM
TGI (HOP-62): 61.7 µM
CC50 (HOP-62; [1]): > 100 µM
LC50 (concentration killing 50% of cells) (SF-539): 81.3 µM
TGI (SF-539): 38 µM
TGI (MOLT-4): > 100 µM
CC50 (MOLT-4; [1]): > 100 µM
TGI (HCT-15): 7.41 µM
CC50 (HCT-15; [1]): > 100 µM
LC50 (lethal concentration, 50% cell kill) (A498): 95.5 µM
TGI (A498): 44.7 µM
TGI (SF-295): 23.4 µM
CC50 (SF-295; [1]): 63.1 µM
TGI (EKVX): 30.9 µM
CC50 (EKVX; [1]): 60.3 µM
TGI (ACHN): 21.9 µM
CC50 (ACHN; [1]): 75.9 µM
LC50 (IGROV-1): > 100 µM
TGI (IGROV-1): > 100 µM
LC50 (concentration causing 50% net cell kill) (UACC-62): 8.51 µM
TGI (UACC-62): 4.37 µM
LC50 (concentration causing 50% cell kill) (PC-3): > 100 µM
TGI (PC-3): 67.6 µM
LC50 (786-0): > 100 µM
TGI (786-0): 52.5 µM
TGI (CCRF-CEM): > 100 µM
CC50 (CCRF-CEM; [1]): > 100 µM
LC50 (SK-MEL-5): 75.9 µM
TGI (SK-MEL-5): 26.3 µM
TGI (SW-620): 11.8 µM
CC50 (SW-620; [1]): > 100 µM
TGI (HCT-116): > 100 µM
CC50 (HCT-116; [1]): > 100 µM
TGI (RPMI-8226): > 100 µM
CC50 (RPMI-8226; [1]): > 100 µM
LC50 (OVCAR-3): 46.8 µM
TGI (OVCAR-3): 20 µM
LC50 (concentration causing 50% net cell kill) (UO-31): > 100 µM
TGI (UO-31): 44.7 µM
TGI (A549): 53.7 µM
CC50 (A549; [1]): > 100 µM
growth at 100 µM (SF-268): 67%
LC50 (DU-145): 70.8 µM
TGI (DU-145): 32.4 µM
LC50 (LOX IMVI): > 100 µM
TGI (LOX IMVI): 21.9 µM
TGI (HCC 2998): 6.61 µM
CC50 (HCC 2998; [1]): 26.3 µM
LC50 (concentration killing 50% of cells) (OVCAR-4): 50.1 µM
TGI (OVCAR-4): 6.46 µM
TGI (KM12): 38.9 µM
CC50 (KM12; [1]): 97.2 µM
TGI (NCI-H322M): 29.5 µM
CC50 (NCI-H322M; [1]): 69.2 µM
LC50 (T47D): > 100 µM
TGI (T47D): 83.2 µM
LC50 (SK-OV-3): > 100 µM
TGI (SK-OV-3): 52.5 µM
